Test results reported in patent publication US20110166234A1, “MEDICINAL PRODUCT AND TREATMENT” (priority 2008, published 2011).

System: human patients suffering from osteoarthritis
Experiment: Clinical study in osteoarthritis patients: patient-recorded adverse side effects
Format: in vivo
Conditions: 4 weeks
Description: Four groups of patients were selected and each group was given one or other of the following medications over a four week period:
All patients were aged from 45-80 and had been suffering from chronic knee pain due to osteoarthritis for at least 6 months. Patients went through a washout period of their existing osteoarthritis treatments. […] At the beginning of the study, and also at conclusion of each subsequent week, patients were required to visit a physician and complete a WOMAC questionnaire and a Global Pain Rating Assessment.
In terms of adverse side effects patients were asked to keep a record of these, if any.

## CC(C)Cc1ccc(C(C)C(=O)O)cc1 (centres unmarked) [Ibuprofen, ibuprofen]
Ibuprofen High group: 2 × 300 mg ibuprofen tablets four times daily, 2,400 mg per day, both related to gastric discomfort
  adverse side effects recorded: two probable adverse effects
Ibuprofen Low group: 2 × 150 mg ibuprofen tablets four times daily, 1,200 mg per day
  adverse side effects recorded: no confirmed or probable adverse side effects
